Assay results from patent US10487092B2, “Pyrazolopyridinamines as MKNK1 and MKNK2 inhibitors” (BAYER PHARMA AKTIENGESELLSCHAFT, priority 2014, dated 2019).

Biological target: human full-length MKNK1 (Homo sapiens (Human), UniProt Q9BUB5, T344D)
Experiment: MKNK1 kinase high ATP assay (TR-FRET)
Format: biochemical
Conditions: high ATP (2 mM), 15 min preincubation with enzyme; read-out: MKNK1 IC50
Description: MKNK1 Kinase High ATP Assay
MKNK1-inhibitory activity at high ATP of compounds of the present invention after their preincubation with MKNK1 was quantified employing the TR-FRET-based MKNK1 high ATP assay as described in the following paragraphs.
A recombinant fusion protein of Glutathione-S-Transferase (GST, N-terminally) and human full-length MKNK1 (amino acids 1-424 and T344D of accession number BAA 19885.1), expressed in insect cells using baculovirus expression system and purified via glutathione sepharose affinity chromatography, was purchased from Carna Biosciences (product no 02-145) and used as enzyme. As substrate for the kinase reaction the biotinylated peptide biotin-Ahx-IKKRKLTRRKSLKG (SEQ ID NO: 1, C-terminus in amide form) was used, which can be purchased e.g. from the company Biosyntan (Berlin-Buch, Germany).
For the assay 50 nL of a 100 fold concentrated solution of the test compound in DMSO was pipetted into a black low volume 384 well microtiter plate (Greiner Bio-One, Frickenhausen, Germany), 2 μL of a solution of MKNK1 in aqueous assay buffer [50 mM HEPES pH 7.5, 5 mM MgCl2, 1.0 mM dithiothreitol, 0.005% (v/v) Nonidet-P40 (Sigma)] was added and the mixture was incubated for 15 min at 22° C. to allow pre-binding of the test compounds to the enzyme before the start of the kinase reaction. Then the kinase reaction was started by the addition of 3 μL of a solution of adenosine-tri-phosphate (ATP, 3.3 mM=>final conc. in the 5 μL assay volume is 2 mM) and substrate (0.1 μM=>final conc. in the 5 μL assay volume is 0.06 μM) in assay buffer and the resulting mixture was incubated for a reaction time of 30 min at 22° C. The concentration of MKNK1 was adjusted depending of the activity of the enzyme lot and was chosen appropriate to have the assay in the linear range, typical concentrations were in the range of 0.003 μg/mL. The reaction was stopped by the addition of 5 μL of a solution of TR-FRET detection reagents (5 nM streptavidine-XL665 [Cisbio Bioassays, Codolet, France] and 1 nM anti-ribosomal protein S6 (pSer236)-antibody from Invitrogen [#44921G] and 1 nM LANCE EU-W1024 labeled ProteinG [Perkin-Elmer, product no. AD0071]) in an aqueous EDTA-solution (100 mM EDTA, 0.1% (w/v) bovine serum albumin in 50 mM HEPES pH 7.5).
The resulting mixture was incubated for 1 h at 22° C. to allow the formation of complex between the phosphorylated biotinylated peptide and the detection reagents. Subsequently the amount of phosphorylated substrate was evaluated by measurement of the resonance energy transfer from the Eu-chelate to the streptavidine-XL. Therefore, the fluorescence emissions at 620 nm and 665 nm after excitation at 350 nm were measured in a TR-FRET reader, e.g. a Rubystar (BMG Labtechnologies, Offenburg, Germany) or a Viewlux (Perkin-Elmer). The ratio of the emissions at 665 nm and at […] was taken as the measure for the amount of phosphorylated substrate. The data were normalised (enzyme reaction without inhibitor=0% inhibition, all other assay components but no enzyme=100% inhibition).

Chain of human full-length MKNK1 (Q9BUB5 other isoform, or with tags, fused parts or gaps T344D): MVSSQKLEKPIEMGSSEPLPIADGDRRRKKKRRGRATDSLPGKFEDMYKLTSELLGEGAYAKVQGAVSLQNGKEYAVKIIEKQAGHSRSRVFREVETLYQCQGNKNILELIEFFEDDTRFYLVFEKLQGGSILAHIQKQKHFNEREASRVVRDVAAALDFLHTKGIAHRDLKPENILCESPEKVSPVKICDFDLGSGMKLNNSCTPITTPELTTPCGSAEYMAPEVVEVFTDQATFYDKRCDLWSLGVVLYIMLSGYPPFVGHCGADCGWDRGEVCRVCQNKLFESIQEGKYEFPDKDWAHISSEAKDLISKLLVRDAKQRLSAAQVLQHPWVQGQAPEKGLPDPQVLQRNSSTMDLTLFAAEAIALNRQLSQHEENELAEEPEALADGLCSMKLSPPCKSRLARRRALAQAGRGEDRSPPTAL

| SMILES | IC50 [µM] |
| --- | --- |
| COCCN(C)C(=O)[C@H]1CCc2c(sc3ncnc(Nc4cc5ccnn5cc4Cl)c23)C1 [Example 56, (7S)-4-[(6-Chloropyrazolo[1,5-a]pyridin-5-yl)amino]-N-(2-methoxyethyl)-N-methyl-5,6,7,8-tetrahydro[1]benzothieno[2,3-d]pyrimidine-7-carboxamide] | 0.041 |
| CC(C)N(C)C(=O)[C@H]1CCc2c(sc3ncnc(Nc4cc5ccnn5cc4Cl)c23)C1 [Example 57, (7S)-4-[(6-Chloropyrazolo[1,5-a]pyridin-5-yl)amino]-N-methyl-N-(propan-2-yl)-5,6,7,8-tetrahydro[1]benzothieno[2,3-d]pyrimidine-7-carboxamide] | 0.012 |
| CN(C)[C@@H]1CCN(C(=O)[C@H]2CCc3c(sc4ncnc(Nc5cc6ccnn6cc5Cl)c34)C2)C1 [Example 58, (7S)-4-[(6-Chloropyrazolo[1,5-a]pyridin-5-yl)amino]-5,6,7,8-tetrahydro[1]benzothieno[2,3-d]pyrimidin-7-yl[(3R)-3-(dimethylamino)pyrrolidin-1-yl]methanone] | 0.002 |
| CN(C)[C@H]1CCN(C(=O)[C@H]2CCc3c(sc4ncnc(Nc5cc6ccnn6cc5Cl)c34)C2)C1 [Example 59, (7S)-4-[(6-Chloropyrazolo[1,5-a]pyridin-5-yl)amino]-5,6,7,8-tetrahydro[1]benzothieno[2,3-d]pyrimidin-7-yl[(3S)-3-(dimethylamino)pyrrolidin-1-yl]methanone] | 0.001 |
| O=C([C@H]1CCc2c(sc3ncnc(Nc4cc5ccnn5cc4Cl)c23)C1)N1C[C@H](O)[C@@H](O)C1 [Example 60, (7S)-4-[(6-Chloropyrazolo[1,5-a]pyridin-5-yl)amino]-5,6,7,8-tetrahydro[1]benzothieno[2,3-d]pyrimidin-7-yl[(3S,4S)-3,4-dihydroxypyrrolidin-1-yl]methanone] | 0.018 |
| CN(C)C1CCN(C(=O)[C@H]2CCc3c(sc4ncnc(Nc5cc6ccnn6cc5Cl)c34)C2)CC1 [Example 61, (7S)-4-[(6-Chloropyrazolo[1,5-a]pyridin-5-yl)amino]-5,6,7,8-tetrahydro[1]benzothieno[2,3-d]pyrimidin-7-yl[4-(dimethylamino)piperidin-1-yl]methanone] | 0.013 |
| CN(C)CCCN(CCO)C(=O)[C@H]1CCc2c(sc3ncnc(Nc4cc5ccnn5cc4Cl)c23)C1 [Example 63, (7S)4-[(6-Chloropyrazolo[1,5-a]pyridin-5-yl)amino]-N-[3-(dimethylamino)propyl]-N-(2-hydroxyethyl)-5,6,7,8-tetrahydro[1]benzothieno[2,3-d]pyrimidine-7-carboxamide] | 0.015 |
| C[C@@H]1CN(C(=O)[C@H]2CCc3c(sc4ncnc(Nc5cc6ccnn6cc5Cl)c34)C2)C[C@H](C)O1 [Example 64, (7S)-4-[(6-Chloropyrazolo[1,5-a]pyridin-5-yl)amino]-5,6,7,8-tetrahydro[1]benzothieno[2,3-d]pyrimidin-7-yl[(2R,6S)-2,6-dimethylmorpholin-4-yl]methanone] | 0.01 |
| CN(C)CCN1CCN(C(=O)[C@H]2CCc3c(sc4ncnc(Nc5cc6ccnn6cc5Cl)c34)C2)CC1 [Example 66, (7S)-4-[(6-Chloropyrazolo[1,5-a]pyridin-5-yl)amino]-5,6,7,8-tetrahydro[1]benzothieno[2,3-d]pyrimidin-7-yl4-[2-(dimethylamino)ethyl]piperazin-1-ylmethanone] | 0.006 |
| CCN(CCN(C)C)C(=O)[C@H]1CCc2c(sc3ncnc(Nc4cc5ccnn5cc4Cl)c23)C1 [Example 67, (7S)-4-[(6-Chloropyrazolo[1,5-a]pyridin-5-yl)amino]-N-[2-(dimethylamino)ethyl]-N-ethyl-3,5,6,7,8-tetrahydro[1]benzothieno[2,3-d]pyrimidine-7-carboxamide] | 0.03 |
| O=C([C@H]1CCc2c(sc3ncnc(Nc4cc5ccnn5cc4Cl)c23)C1)N1CCOCC1 [Example 68, (7S)-4-[(6-Chloropyrazolo[1,5-a]pyridin-5-yl)amino]-5,6,7,8-tetrahydro[1]benzothieno[2,3-d]pyrimidin-7-yl(morpholin-4-yl)methanone] | 0.004 |
| CCN(CCO)C(=O)[C@H]1CCc2c(sc3ncnc(Nc4cc5ccnn5cc4Cl)c23)C1 [Example 69, (7S)-4-[(6-Chloropyrazolo[1,5-a]pyridin-5-yl)amino]-N-ethyl-N-(2-hydroxyethyl)-5,6,7,8-tetrahydro[1]benzothieno[2,3-d]pyrimidine-7-carboxamide] | 0.006 |
| CCN(CCOC)C(=O)[C@H]1CCc2c(sc3ncnc(Nc4cc5ccnn5cc4Cl)c23)C1 [Example 70, (7S)-4-[(6-Chloropyrazolo[1,5-a]pyridin-5-yl)amino]-N-ethyl-N-(2-methoxyethyl)-5,6,7,8-tetrahydro[1]benzothieno[2,3-d]pyrimidine-7-carboxamide] | 0.007 |
| COCCN(CCOC)C(=O)[C@H]1CCc2c(sc3ncnc(Nc4cc5ccnn5cc4Cl)c23)C1 [Example 71, (7S)-4-[(6-Chloropyrazolo[1,5-a]pyridin-5-yl)amino]-N,N-bis(2-methoxyethyl)-5,6,7,8-tetrahydro[1]benzothieno[2,3-d]pyrimidine-7-carboxamide] | 0.012 |
| CN1C[C@@H]2C[C@H]1CN2C(=O)[C@H]1CCc2c(sc3ncnc(Nc4cc5ccnn5cc4Cl)c23)C1 [Example 72, (7S)-4-[(6-Chloropyrazolo[1,5-a]pyridin-5-yl)amino]-5,6,7,8-tetrahydro[1]benzothieno[2,3-d]pyrimidin-7-yl[(1S,4S)-5-methyl-2,5-diazabicyclo[2.2.1]hept-2-yl]methanone] | 0.014 |
| CN1C[C@H]2C[C@@H]1CN2C(=O)[C@H]1CCc2c(sc3ncnc(Nc4cc5ccnn5cc4Cl)c23)C1 [Example 73, (7S)-4-[(6-Chloropyrazolo[1,5-a]pyridin-5-yl)amino]-5,6,7,8-tetrahydro[1]benzothieno[2,3-d]pyrimidin-7-yl[(1R,4R)-5-methyl-2,5-diazabicyclo[2.2.1]hept-2-yl]methanone] | 0.004 |
| O=C([C@H]1CCc2c(sc3ncnc(Nc4cc5ccnn5cc4Cl)c23)C1)N1C[C@@H]2C[C@H]1CO2 [Example 74, (7S)-4-[(6-Chloropyrazolo[1,5-a]pyridin-5-yl)amino]-5,6,7,8-tetrahydro[1]benzothieno[2,3-d]pyrimidin-7-yl[(1S,4S)-2-oxa-5-azabicyclo[2.2.1]hept-5-yl]methanone] | 0.022 |
| O=C([C@H]1CCc2c(sc3ncnc(Nc4cc5ccnn5cc4Cl)c23)C1)N1C[C@H]2C[C@@H]1CO2 [Example 75, (7S)-4-[(6-Chloropyrazolo[1,5-a]pyridin-5-yl)amino]-5,6,7,8-tetrahydro[1]benzothieno[2,3-d]pyrimidin-7-yl[(1R,4R)-2-oxa-5-azabicyclo[2.2.1]hept-5-yl]methanone] | 0.056 |
| C[C@H]1COCCN1C(=O)[C@H]1CCc2c(sc3ncnc(Nc4cc5ccnn5cc4Cl)c23)C1 [Example 76, (7S)-4-[(6-Chloropyrazolo[1,5-a]pyridin-5-yl)amino]-5,6,7,8-tetrahydro[1]benzothieno[2,3-d]pyrimidin-7-yl[(3S)-3-methylmorpholin-4-yl]methanone] | 0.007 |
| C[C@@H]1COCCN1C(=O)[C@H]1CCc2c(sc3ncnc(Nc4cc5ccnn5cc4Cl)c23)C1 [Example 77, (7S)-4-[(6-Chloropyrazolo[1,5-a]pyridin-5-yl)amino]-5,6,7,8-tetrahydro[1]benzothieno[2,3-d]pyrimidin-7-yl[(3R)-3-methylmorpholin-4-yl]methanone] | 0.021 |
